Test results published in patent US9220680B2, “Compositions and methods for localized drug delivery through mammary papillae” (South Dakota State University, priority 2012, dated 2015).
“Also recorded” adds a separate entry of the source. Read-outs that look alike come from different tables or passages of the source.

Key:
[1] = Transmammary permeation across porcine mammary papilla with and without removal of the keratin plug (Experiments 7-10); assay type: in vitro ADME; settings: porcine mammary papilla
Excerpt: Keratin plug was removed from human and porcine mammary papilla using an alcoholic cotton swab. The swab was gently rubbed on the surface of the mammary papilla. The mammary papilla was observed under the microscope to confirm the removal of the plug from the surface and to confirm that epidermis of the mammary papilla was not damaged during this procedure.
The drug solutions were spiked with radioactive substances. […] Receptor medium was PBS with 7.4 pH.
(§1) Mammary papillae tissues were thawed. Keratin plugs were removed from the mammary papilla tissues using swabs with ethanol. […] The drug solutions were spiked with radioactive substances. […] Receptor medium was PBS with 7.4 pH.
as §1
Mammary papillae tissues were thawed. Keratin plugs were removed from the mammary papilla tissues using swabs with ethanol. […] The drug solutions were spike with radioactive substances. […] Receptor medium was PBS with 7.4 pH.

[2] = Transmammary permeation across human mammary papilla with and without removal of the keratin plug (Experiments 12-18); assay type: in vitro ADME; settings: for lag time / cumulative amount permeated / Drug retention in tissue / Flux: value (SEM); for cumulative amount permeated: 48 hours; for Drug retention in tissue: end of 48 hours
Excerpt: Mammary papillae tissues were thawed. […] The drug solutions were spiked with radioactive substances. […] Receptor medium was PBS with 7.4 pH. […] Results may be seen in FIG. 37 and Table 13.
Mammary papillae tissues were thawed. […] The drug solutions were spiked with radioactive substances. […] Receptor medium was PBS with 7.4 pH. […] Results may be seen in FIG. 38 and Table 15.
Mammary papillae tissues were thawed. […] The drug solutions were spiked with radioactive substances. […] Receptor medium was PBS with 7.4 pH. […] Results may be seen in FIG. 39 and Table 17.
Mammary papillae tissues were thawed. […] The drug solutions were spiked with radioactive substances. […] Receptor medium was PBS with 7.4 pH. […] Results may be seen in FIG. 40.
Mammary papillae and skin tissues were thawed. […] The drug solutions were spiked with radioactive substances. […] Receptor medium was PBS with 7.4 pH. […] Results may be seen in FIG. 41 and Table 20.
Mammary papillae and skin tissues were thawed. […] The drug solutions were spiked with radioactive substances. […] Receptor medium was PBS with 7.4 pH. […] Results may be seen in FIG. 42 and Table 22.
Mammary papillae tissues were thawed. […] The drug solutions were spiked with radioactive substances. […] Receptor medium was PBS with 7.4 pH. […] Results may be seen in FIG. 43 and Table 24.

[3] = Permeation across human breast skin (Experiments 16-18); assay type: in vitro ADME; settings: human breast skin, value (SEM)
Excerpt: Mammary papillae and skin tissues were thawed. Keratin plugs were removed from the mammary papilla tissues using swabs with ethanol. […] The drug solutions were spiked with radioactive substances. […] Receptor medium was PBS with 7.4 pH. […] Results may be seen in FIG. 41 and Table 20.
Mammary papillae and skin tissues were thawed. Keratin plugs were removed from the mammary papilla tissues using swabs with ethanol. […] The drug solutions were spiked with radioactive substances. […] Receptor medium was PBS with 7.4 pH. […] Results may be seen in FIG. 42 and Table 22. […]

[4] = Permeation across human mammary areola vs human breast skin (Experiments 19-21); settings: cadaver tissue; donor in 50:50 ethanol:water; 48 hours
Procedure: (§2) Mammary areolae and skin tissues were procured from a cadaver (Pacific Islander). […] The drug solutions were spiked with radioactive substances. Now 500 μl of the formulation was placed in the donor. Receptor medium was PBS with 7.4 pH. Three […] samples of donor were taken to determine DPM of donors. 200 μl samples were taken from the receptor at pre-determined time points. […] Results may be seen in FIG. 44.
as §2, with “45.” for “44.”
as §2, with “46.” for “44.”

[5] = Biodistribution of 5FU in rats 30 minutes after intraductal and intravenous injection (Experiment 24); assay type: in vivo, Sprague-Dawley rats; settings: rat; for Drug per gram tissue of mammary papilla: 30 min, n=1
Procedure: The hair on the skin of the rats was removed using a hair removing formulation. The treatment was given after 24 hours to make sure the skin is recovered if damaged or altered due to the hair removal treatment.
Next day, the rats were placed under controlled Isoflurane anesthesia. Now 500 μl of Blood samples were collected from each animal before beginning the experiment, by retro-orbital technique, as a control. For intraductal injection the mammary papilla to be treated was gently wiped with an alcoholic cotton swab to remove the keratin plug. Now 50 μl of 5FU solution in saline (10 mg/ml) was injected into the duct of the mammary papilla under a stereo-microscope. After this the animal was removed from anesthesia and placed into the cage. In case of intravenous injection, similar to intraductal, 50 μl of 5FU solution in saline (10 mg/ml) was injected into the tail vein and the animal was placed into the cage for 30 minutes. At the end of 30 minutes 500 μl of blood sample was collected. After this the rats were euthanized. Now for intraductal injection the treated area of the rat was cleaned with water. The rat was opened from the abdominal skin. Treated mammary papilla and mammary gland existing underneath the treated mammary papilla was excised and collected. Lateral mammary papilla and mammary gland was collected along with distant mammary papilla and mammary gland, as controls. Followed by this other organs including heart, brain, liver, spleen, kidneys and lungs were collected. In case of intravenous treatment, blood was collected and mammary tissues (mammary papilla, mammary gland and surrounding breast skin) was collected along with other organs including heart, brain, liver, spleen, kidneys and lungs. All the tissues were weighed and then mechanically homogenized to extract the drug. The homogenates were mixed with hydrogen peroxide solution (30% v/v) and then radioactivity into the samples was measured by liquid scintillation counting. Similarly blood samples were centrifuged and the supernatants were analyzed by scintillation counting. Results may be seen in FIG. 50, Tables 30-31.

[6] = rat
[7] = 5FU 20 mg/ml, human mammary papilla with keratin plug removal
[8] = 5FU 20 mg/ml, human mammary papilla without keratin plug removal

Question: For `O=c1[nH]cc(F)c(=O)[nH]1` [5FU, 5-fluorouracil], which Transmammary flux [1] is on record?
Answer: Its Transmammary flux is 10.79 μg/sq·cm/h.

Question: What about the “Change of permeation upon removal of the keratin plugs (in words)” value ([1]; donor in 50:50 ethanol:water, 48 hours) of the same compound?
Answer: The value was “increases slightly, though statistically not significant”.

Question: And the lag time ([2]; 5FU 20 mg/ml in 50:50 ethanol:water, human mammary papilla with keratin plug removal, n=3-4)?
Answer: The lag time was 8.76 (1.46) hours.

Question: And the cumulative amount permeated [2, 7]?
Answer: The cumulative amount permeated was 5.06 (1.17) μmole.

Question: What about the “Drug retention in tissue” value [2, 7] of the same compound?
Answer: The value was 7.30 (2.81) umole/g of tissue.

Question: What about the Flux [2, 7] of the same compound?
Answer: Its Flux is 0.18 (0.05) μmole/cm^2/hour.

Question: And the cumulative amount permeated [2, 8]?
Answer: The cumulative amount permeated was 0.71 (0.08) μmole.

Question: What about the “Drug retention in tissue” value [2, 8] of the same compound?
Answer: Its value is 2.28 (0.04) umole/g of tissue.

Question: What about the Flux [2, 8] of the same compound?
Answer: The Flux was 0.03 (0.00) μmole/cm^2/hour.

Question: And the lag time [2, 8]?
Answer: The lag time was 17.96 (3.80) hours.

Question: What about the “Permeation profile via human vs porcine mammary papillae” value ([2]; after keratin plug removal, 48 hours (Experiment 15)) of the same compound?
Answer: Its value is “similar”.

Question: What about the “Increase in permeation across the tissues upon removal of the keratin plugs” value ([2]; human mammary papilla) of the same compound?
Answer: Its value is “more than 7 fold”.

Question: And the lag time ([3]; 5FU 20 mg/ml in 1:1 ethanol:water)?
Answer: The lag time was 3.64 (0.37) hours.

Question: And the cumulative amount permeated ([3]; 5FU 20 mg/ml, 48 hours)?
Answer: Its cumulative amount permeated is 2.69 (0.22) μmole.

Question: And the “Drug retention in tissue” value ([3]; 5FU 20 mg/ml, end of 48 hours)?
Answer: Its value is 9.56 (1.11) umole/g of tissue.

Question: What about the Flux ([3]; 5FU 20 mg/ml) of the same compound?
Answer: Its Flux is 0.08 (0.01) μmole/cm^2/hour.

Question: And the “Permeability across human mammary areola compared with human breast skin” value [4]?
Answer: The value was “lower than that across human breast skin”.

Question: What about the “Drug per gram tissue, mammary gland” value ([5]; ID (30 min)) of the same compound?
Answer: Its value is 0.018 µmol/g.

Question: What about the “Drug per gram tissue, surrounding skin” value ([5]; ID (30 min)) of the same compound?
Answer: Its value is 0.03 µmol/g.

Question: And the “Drug per gram tissue, mammary gland” value ([5]; IV (30 min))?
Answer: Its value is 0.009 µmol/g.

Question: What about the “Drug per gram tissue, surrounding skin” value ([5]; IV (30 min)) of the same compound?
Answer: The value was 0 µmol/g.

Question: What about the “5FU in vital organs of the body” value ([5]; intraductal and intravenous injection, 30 minutes) of the same compound?
Answer: The value was “significant amount of 5FU in vital organs of the body including kidneys, liver and brain”.

Question: And the “Drug per gram tissue of mammary papilla” value ([5]; intraductal injection 50 μl of 10 mg/ml 5FU in saline)?
Answer: Its value is 0.16 µmol/g.

Question: What about the “Drug per gram tissue of mammary papilla” value ([5]; intravenous injection 50 μl of 10 mg/ml 5FU in saline) of the same compound?
Answer: The value was 0 µmol/g.

Question: What about the “Profile of 5FU in plasma” value ([6]; intravenous injection) of the same compound?
Answer: Its value is “quickly eliminating from the blood”.

Question: What about the “Retention of 5FU in mammary papilla” value ([6]; intravenous injection, 30 minutes) of the same compound?
Answer: Its value is “some accumulation of 5FU into the mammary papilla”.

Question: What about the “5FU retention into the vital organs (kidneys, heart, liver, lungs, spleen and brain)” value ([6]; topical application (transmammary and transdermal) vs intravenous injection) of the same compound?
Answer: The value was “several folds lower than that after intravenous injection”.

Question: What about the “5FU in blood / plasma” value ([6]; topical delivery (transmammary and transdermal), 6 h) of the same compound?
Answer: The value was “no amount of 5FU was observed into the blood; also recorded: below the level of detection”.

Question: And the “Retention of 5FU in mammary papilla” value ([6]; transdermal treatment, 6 h)?
Answer: The value was “no 5FU was observed into the mammary papilla”.

Question: What about the “Amount of 5FU in mammary gland” value ([6]; transmammary treatment 250 μl of 10 mg/ml for 6 h, compared with intravenous and transdermal) of the same compound?
Answer: Its value is “highest amount of 5FU in mammary gland”.

Question: What about the “Retention of 5FU in mammary papilla” value ([6]; transmammary treatment, 6 h) of the same compound?
Answer: The value was “significant retention of 5FU into the mammary papilla”.
